# Measured values taken from article PMC6270263, “Factors Influencing the Antifolate Activity of Synthetic Tea-Derived Catechins” (Molecules, 2013).
# System: SK-MEL-28 melanoma cells
# Test: Apoptosis assay (cell death detection ELISA) with or without site markers
# Assay type: cell-based, human
# Details: SK-MEL-28, 10 µM, alone
# Description: Serum is commonly used as a supplement in cell culture media. It supports cell growth and product formation by providing a broad spectrum of macromolecules, attachment factors, nutrients, and hormone and growth factors. The most commonly used animal serum supplement is foetal bovine serum, FBS (alternatively called foetal calf serum—FCS). Because BSA is a major component of FBS, the in vitro activity of catechins on tumour cells might be affected by their interaction with BSA. The effect of albumin binding on the biological activity of polyphenols is unclear. Does the bound ligand have some biological activity or does the polyphenol have to be in the free form to be active? To answer this question and to determine whether BSA-catechin interactions increase or decrease catechin anti-tumour activity, the proapoptotic activity of TMCG on SK-MEL-28 melanoma cells was probed in the presence of warfarin or ibuprofen [Figure 5(b)]. […] Because the binding of catechins to BSA seems to control drug availability, the lower affinity of TMCG and TMECG for serum albumins, with respect to natural tea catechins, might contribute to the high in vivo anti-tumour activity of these methylated synthetic catechins. […]
# The human melanoma cell line SK-MEL-28 was obtained from American Type Culture Collection (ATCC, Manassas, VA, USA) and was maintained in Eagles’s Minimum Essential Medium (EMEM) supplemented with 10% (v/v) FBS and antibiotics at 37 °C in a humidified atmosphere containing 7.5% CO2. Cell viability was evaluated using the MTT cell proliferation assay. Cells were evaluated for apoptosis using a cell death detection ELISA (Cell Death Detection ELISAPLUS, Roche Diagnostics, Barcelona, Spain). […] The amount of nucleosomes is photometrically quantified at 405 nm by the peroxidase activity retained in the immunocomplexes. Apoptosis was defined as the specific enrichment of mono- and oligonucleosomes in the cytoplasm and was calculated by dividing the absorbance of treated samples with the absorbance of untreated samples after correcting for the number of cells. […]
row,Structure (SMILES),"Induction of apoptosis, compound alone"
1,"CC(C)Cc1ccc(C(C)C(=O)O)cc1 (centres unmarked) [ibuprofen, reference compound]",did not induce apoptosis
2,"CC(=O)CC(c1ccccc1)c1c(O)c2ccccc2oc1=O (centres unmarked) [warfarin, reference compound]",did not induce apoptosis
